Assay [1] deals with T1, Proteasome Macropain subunit MB1 (Homo sapiens, UniProt P28074).
T1 sequence (P28074 whole entry): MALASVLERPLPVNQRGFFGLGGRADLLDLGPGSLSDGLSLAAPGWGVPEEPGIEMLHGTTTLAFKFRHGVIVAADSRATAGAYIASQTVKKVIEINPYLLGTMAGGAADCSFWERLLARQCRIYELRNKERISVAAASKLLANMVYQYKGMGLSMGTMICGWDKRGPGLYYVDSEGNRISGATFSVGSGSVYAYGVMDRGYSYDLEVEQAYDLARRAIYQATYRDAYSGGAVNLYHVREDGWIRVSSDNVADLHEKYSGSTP
The assay is described as follows: Inhibition of human 20S constitutive proteosome beta5c subunit using Suc-LLVY-AMC as substrate measured after 10 mins by fluorescence based analysis.

Assay [2] has as its target T1, Proteasome Macropain subunit MB1. The assay is described as follows: Competitive inhibition of human 20S constitutive proteosome beta5c subunit using Suc-LLVY-AMC as substrate measured after 10 mins by fluorescence based analysis.

`COc1ccccc1NC(=O)Nc1ccc2n(c1=O)C[C@@H]1C[C@H]2CN(C(=O)c2ccccn2)C1`: in assay [1], the IC50 (as a rule, the concentration needed to halve the response being measured) was 560 µM. Turning to `N#Cc1cccc(NC(=O)Nc2ccc3n(c2=O)C[C@@H]2C[C@H]3CN(C(=O)c3ccccc3)C2)c1`, the midpoint of inhibition in assay [1], the IC50, lay at 201 µM. This IC50 lies about 2.8-fold lower than the previous one. In turn, `COc1ccccc1NC(=O)Nc1ccc2n(c1=O)C[C@@H]1C[C@H]2CN(C(=O)c2ccc3ccccc3c2)C1` yielded an IC50 in assay [1] of 6.65 µM. Also, the Ki (usually the equilibrium dissociation constant of an inhibitor or competing ligand from its target) in assay [2] was 4.6 µM. On the same counts, the results for `N#Cc1cccc(NC(=O)Nc2ccc3n(c2=O)C[C@@H]2C[C@H]3CN(C(=O)c3ccc4ccccc4c3)C2)c1` are 10.3 µM and 3.42 µM. `CC(=O)N1C[C@H]2C[C@@H](C1)c1ccc(NC(=O)Nc3cccc(C#N)c3)c(=O)n1C2`: half-maximal inhibition in assay [1] (IC50) was put at 491 µM.

Consider `O=C(Nc1ccccc1)Nc1ccc2n(c1=O)C[C@@H]1C[C@H]2CN(C(=O)c2ccc3ccccc3c2)C1`, for which the IC50 in assay [1] was determined as 11.1 µM. The same molecule returned a Ki in assay [2] of 9.69 µM.

`O=C(Nc1ccc(Cl)cc1)Nc1ccc2n(c1=O)C[C@@H]1C[C@H]2CN(C(=O)c2ccc3ccccc3c2)C1`: half-maximal inhibition in assay [1] (IC50) was put at 3.43 µM. The molecule also registered an inhibition constant Ki in assay [2] of 1.14 µM. Regarding `O=C(Nc1ccccc1)Nc1ccc2n(c1=O)C[C@@H]1C[C@H]2CN(C(=O)c2ccccn2)C1`, the IC50 in assay [1] is more than 500 µM.

`N#Cc1cccc(NC(=O)Nc2ccc3n(c2=O)C[C@@H]2C[C@H]3CN(C(=O)c3cccnc3)C2)c1` gave an IC50 in assay [1] of 440 µM.

The record behind these values is ChEMBL document CHEMBL5252637, “Identification of a new class of proteasome inhibitors based on a naphthyl-azotricyclic-urea-phenyl scaffold” (RSC Med Chem, 2023).
